In patent US6306422A, “Compositions and devices for controlled release of active ingredients” (priority 1998, dated 2001):
Counter-ions that a name gives are not always drawn.

Key:
[1] = cited from earlier work
[2] = Swelling in solvents for drug loading and AHA loading of the hydrogel; type: physicochemical
Method: Six pieces of the MMA/AA (90/9) polymer were weighed in the dry state. Each piece was placed into 4 ml of a separate solvent. The solvents used were pH buffers with pH values of 4.0, 7.4, and 9.0, 90 v/v % ethanol, methanol, and 90 v/v % acetone at 37° C. […] A 16 w/w % solution of acetohydroxamic acid in 90% acetone was prepared.
Hydrogel pieces were weighed in the dry state. Six pieces weighing approximately the same were separated out for each respective pH buffer value. Each gel piece was individually placed into a test tube containing 3 ml of the 16% AHA acetone solution. The test tubes were capped and wrapped in parafilm to prevent evaporation of the solvent. The test tubes were placed into a 37° C. water bath for 48 hours. The hydrogel pieces were then removed from the AHA solution and placed in a vacuum oven at 60° C. for solvent evaporation and then at room temperature for a total drying time of 72 hours. The drug-loaded gels were then reweighed, and the total AHA content was calculated.
Absorbances for each of the solutions were measured at 515 nm on a Perkin-Elmer Lambda 3B UV/VIS Spectrophotometer. A calibration curve was calculated from the standard concentration solutions. The concentrations of the AHA were calculated from the absorbances and raised to the initial surface area of the gel matrix.

bacteria = details: cited from earlier work
urease = biological target: T1, urease (Proteus mirabilis, UniProt P17086); test: Bacteria/urease study: pH of artificial urine with Proteus mirabilis; type: cell-based; details: 10^11 bacteria/ml
T1 construct: endogenous in cells; host or cells: living Proteus mirabilis (clinic isolate) in artificial urine
Method: After mixing, the urine was filter-sterilized into a sterile container using a 0.2 μm pore size filtration system. A solution of this artificial urine containing 750 μg/ml of AHA was prepared by dissolving 0.0757 g of the AHA in 100 ml of the urine. This solution was then diluted in series to yield artificial urine with AHA concentrations of 375, 187.5, 75, and 7.5 μg/ml.
Fifty milliliters of these solutions were sterilized by filtering them through a syringe filter with 0.2 μm pore size into a sterile container.
Proteus mirabilis were harvested from the Surgery/Urology clinic at the University of Florida, Gainesville, Fla. These bacteria were cultured on a heart infusion agar (Difco Laboratories) for 48 hours at 37° C. Bacteria were aseptically harvested and suspended in a solution of artificial urine not containing any of the urease inhibitor. Dilutions of this suspension were made to 10,000, and a count of the bacteria was made on a microscopic counting grid. The initial concentration of bacteria was back-calculated by using the Petroff-Hauser formula shown in equation two. [formula]
For the urine solutions containing the urease inhibitor and two control solutions (one containing bacteria and the other without), a series of six test tubes was set up. […] The pH of each of the samples was measured initially and then at 2 hour intervals up to 12 hours. […]

[3] = cited from earlier work; remark: listed apart in the source
struvite encrustation = details: cited from earlier work
[4] = cited from earlier work; remark: listed apart in the source
[5] = in vivo; cited from earlier work
[6] = test system: Proteus sp. and other urease-producing organisms; details: cited from earlier work

T1 sequence (P17086 whole entry): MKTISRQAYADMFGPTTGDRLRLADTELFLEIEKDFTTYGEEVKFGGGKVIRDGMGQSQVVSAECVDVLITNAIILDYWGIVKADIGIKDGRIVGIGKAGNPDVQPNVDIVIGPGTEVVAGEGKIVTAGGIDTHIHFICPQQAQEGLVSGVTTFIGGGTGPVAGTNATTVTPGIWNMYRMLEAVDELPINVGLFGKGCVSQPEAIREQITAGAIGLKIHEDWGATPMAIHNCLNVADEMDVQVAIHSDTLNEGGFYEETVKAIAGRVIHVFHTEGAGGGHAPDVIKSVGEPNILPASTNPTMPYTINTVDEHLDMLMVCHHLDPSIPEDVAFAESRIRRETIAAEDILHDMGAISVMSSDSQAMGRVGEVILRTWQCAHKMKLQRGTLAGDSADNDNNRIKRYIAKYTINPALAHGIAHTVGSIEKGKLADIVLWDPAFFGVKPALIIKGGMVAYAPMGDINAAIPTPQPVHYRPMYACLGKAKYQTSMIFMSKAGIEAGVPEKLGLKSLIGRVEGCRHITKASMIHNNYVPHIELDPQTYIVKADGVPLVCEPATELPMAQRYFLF
T1 sequence (P17088 whole entry, further chain): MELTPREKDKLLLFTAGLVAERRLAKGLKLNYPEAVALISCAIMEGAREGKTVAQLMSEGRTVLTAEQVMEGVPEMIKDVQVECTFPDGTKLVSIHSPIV
T1 sequence (P17087 whole entry, further chain): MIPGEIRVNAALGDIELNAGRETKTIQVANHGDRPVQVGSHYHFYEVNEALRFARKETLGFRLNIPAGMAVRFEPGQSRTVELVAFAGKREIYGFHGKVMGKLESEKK

CC(=O)NO [AHA, acetohydroxamic acid]
pKa [1]: 9.3
concentration near the saturation point ([2]; in 90% acetone): ~16 w/w %
solubility of AHA in the chosen solutions ([2]; pH 4.0, 7.4, 9.0 buffers, 90 v/v % ethanol, methanol, 90 v/v % acetone): very soluble
effect of the presence of AHA on methenamine (bacteria): increases the antibacterial activity of the methenamine
effect of AHA on the activity of urease (pH of artificial urine) (urease; AHA 7.5-750 μg/ml, 37° C., up to 24 hours): resists pH increase for a longer time and experiences a smaller overall pH increase
concentration of AHA giving therapeutic benefit (urease; artificial urine): 7.5 µg/mL
absorption from the gastrointestinal tract ([3]; human, in vivo): well absorbed
adverse effects limiting use ([3]; patients): Coomb's hemolytic anemia, GI complaints, bone marrow depression, and teratogenicity

O=C(O)CC(O)(CC(=O)O)C(=O)O [Sodium citrate]
prevention of struvite encrustation (struvite encrustation): shows potential

[H]/N=C(\N/C(=N/[H])NCCCCCCNC(=N)NC(=N)Nc1ccc(Cl)cc1)Nc1ccc(Cl)cc1 [chlorhexidine]
solubility in alcohols [4]: highly soluble

O=C(O)CNC(=O)c1ccccc1 [hippuric acid]
solubility in alcohols [4]: highly soluble

Chondroitin sulfate
prevention of struvite encrustation (struvite encrustation): ineffective

Gentamicin
toxicity limiting plasma concentrations [5]: systemic nephrotoxicity
effectiveness against Proteus sp. and other urease-producing organisms [6]: highly effective

heparin sulfate
prevention of struvite encrustation (struvite encrustation): ineffective
